Test results published in US8026218B2, “Bifunctional analgesic compounds for opioid receptor agonists and neurokinin-1 receptor antagonists” (The University of Arizona, priority 2006, dated 2011).
Like-named read-outs stand apart in the source and are kept apart here. Peptide text beside a SMILES is read from it.

Assays:
rat NK1 (rNK1) receptor = molecular target: T1, rat NK1 (rNK1) receptor (Rattus norvegicus, UniProt P14600); test: Radioligand competition binding, [3H]substance P, rNK1/CHO membranes
T1 construct: expressed in transfected cells; host or cells: CHO (rNK-1/CHO cell line from Dr. James Krause)

δ opioid receptors (MVD) = molecular target: T2, δ opioid receptors (MVD) (Mus musculus, UniProt P32300); test: Mouse isolated vas deferens (MVD) assay, opioid agonist
T2 construct: from tissue; host or cells: mouse (ICR) isolated vas deferens

[1] = molecular target: T3, human NK1 receptor (hNK1) (Homo sapiens, UniProt P25103); test: Radioligand competition binding, [3H]-Substance P, hNK1
T3 construct: expressed in transfected cells

μ opioid receptors (GPI) = test: Guinea pig isolated ileum (GPI) assay, opioid agonist;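 further: inhibition of electrically evoked contractions (0.1 Hz, 0.4 msec, supramaximal voltage) in organ baths at 37 °C, contraction height 3 min after each cumulative dose versus the 1 min before dosing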
[2] = molecular target: T4, Substance P receptors (guinea pig NK1) (Cavia porcellus, UniProt P30547); test: Guinea pig isolated ileum (GPI) assay with substance P stimulation in presence of 1 μM naloxone
T4 construct: from tissue; host or cells: guinea pig (Hartley) ileum LMMP, 1 μM naloxone present

[3] = molecular target: T5, human δ opioid receptors (hDOR) (Homo sapiens, UniProt P41143); test: [35S]GTP-γ-S binding assay, hDOR; assay type: biochemical
T5 construct: expressed in transfected cells; host or cells: HN9.10 neuroblastoma cell line, pCDNA3, neomycin-selected clones

[4] = molecular target: T5, human δ opioid receptors (hDOR); test: Radioligand competition binding, [3H]DPDPE, hDOR membranes
[5] = molecular target: T6, rat μ opioid receptors (rMOR) (Rattus norvegicus, UniProt P33535); test: biochemical; assay type: biochemical; details: for EC50: read-out: GTP rMOR EC50
T6 construct: expressed in transfected cells; host or cells: HN9.10 neuroblastoma cell line, pCDNA3, neomycin-selected clones

[6] = Table 39, read-out: GTP binding hDOR Emax
[7] = Table 39, read-out: GPI/LMMP opioid(mu) agonist (IC50; nM)
[8] = Table 39, read-out: GTP binding rMOR Emax
[9] = Table 32, read-out: GTP hDOR EC50
[10] = Table 32, read-out: GTP hDOR EMax
[11] = Table 35, read-out: GPI/LMMP μ-agonist IC50
[12] = Table 32, read-out: GTP rMOR EMax
[13] = GPI/LMMP SP antagonist Ke (nM), Table 35
[14] = Table 39, read-out: GTP binding hDOR EC50
[15] = Substance P antagonist, GPI, Ke, in the presence of 1 μM naloxone

T5 sequence (P41143 whole entry): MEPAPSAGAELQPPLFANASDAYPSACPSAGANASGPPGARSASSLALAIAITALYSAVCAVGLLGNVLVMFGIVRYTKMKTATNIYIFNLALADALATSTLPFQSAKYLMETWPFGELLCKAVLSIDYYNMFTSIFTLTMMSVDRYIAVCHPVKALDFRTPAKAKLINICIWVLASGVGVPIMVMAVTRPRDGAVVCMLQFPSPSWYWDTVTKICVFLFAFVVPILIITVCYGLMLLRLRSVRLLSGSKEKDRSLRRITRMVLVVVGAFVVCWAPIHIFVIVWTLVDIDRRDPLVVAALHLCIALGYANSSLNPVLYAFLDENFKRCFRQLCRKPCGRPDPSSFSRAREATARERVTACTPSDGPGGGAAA
T6 sequence (P33535 whole entry): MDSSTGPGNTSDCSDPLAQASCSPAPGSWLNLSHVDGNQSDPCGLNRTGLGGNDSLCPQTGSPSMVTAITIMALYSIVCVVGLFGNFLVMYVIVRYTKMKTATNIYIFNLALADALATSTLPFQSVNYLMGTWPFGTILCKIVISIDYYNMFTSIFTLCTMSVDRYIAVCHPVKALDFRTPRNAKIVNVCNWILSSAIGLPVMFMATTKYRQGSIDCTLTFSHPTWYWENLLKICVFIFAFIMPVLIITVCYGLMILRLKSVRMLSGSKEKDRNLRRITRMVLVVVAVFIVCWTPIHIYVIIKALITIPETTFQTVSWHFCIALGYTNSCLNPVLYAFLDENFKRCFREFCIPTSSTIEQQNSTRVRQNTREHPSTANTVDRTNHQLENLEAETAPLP
T4 sequence (P30547 whole entry): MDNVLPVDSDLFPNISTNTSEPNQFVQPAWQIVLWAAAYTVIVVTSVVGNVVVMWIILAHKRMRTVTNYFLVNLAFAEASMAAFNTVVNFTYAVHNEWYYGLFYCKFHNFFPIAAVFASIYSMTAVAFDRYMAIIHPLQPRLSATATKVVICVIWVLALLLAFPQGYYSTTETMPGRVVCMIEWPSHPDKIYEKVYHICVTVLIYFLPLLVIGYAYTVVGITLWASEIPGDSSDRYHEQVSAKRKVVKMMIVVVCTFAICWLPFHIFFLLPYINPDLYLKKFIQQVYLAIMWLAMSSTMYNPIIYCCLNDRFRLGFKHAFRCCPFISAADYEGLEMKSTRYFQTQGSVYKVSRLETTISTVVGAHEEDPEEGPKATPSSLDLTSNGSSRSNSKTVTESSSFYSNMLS
T3 sequence (P25103 whole entry): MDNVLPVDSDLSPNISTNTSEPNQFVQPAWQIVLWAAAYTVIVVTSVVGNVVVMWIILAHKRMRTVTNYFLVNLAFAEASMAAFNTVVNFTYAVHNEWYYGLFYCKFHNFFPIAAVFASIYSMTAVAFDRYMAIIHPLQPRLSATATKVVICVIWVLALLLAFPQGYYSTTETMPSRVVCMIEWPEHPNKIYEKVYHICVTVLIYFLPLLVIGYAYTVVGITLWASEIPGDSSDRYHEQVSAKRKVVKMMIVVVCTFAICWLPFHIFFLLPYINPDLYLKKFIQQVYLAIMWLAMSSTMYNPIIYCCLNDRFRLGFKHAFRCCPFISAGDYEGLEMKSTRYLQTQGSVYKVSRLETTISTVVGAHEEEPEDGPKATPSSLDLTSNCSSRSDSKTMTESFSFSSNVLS
T1 sequence (P14600 whole entry): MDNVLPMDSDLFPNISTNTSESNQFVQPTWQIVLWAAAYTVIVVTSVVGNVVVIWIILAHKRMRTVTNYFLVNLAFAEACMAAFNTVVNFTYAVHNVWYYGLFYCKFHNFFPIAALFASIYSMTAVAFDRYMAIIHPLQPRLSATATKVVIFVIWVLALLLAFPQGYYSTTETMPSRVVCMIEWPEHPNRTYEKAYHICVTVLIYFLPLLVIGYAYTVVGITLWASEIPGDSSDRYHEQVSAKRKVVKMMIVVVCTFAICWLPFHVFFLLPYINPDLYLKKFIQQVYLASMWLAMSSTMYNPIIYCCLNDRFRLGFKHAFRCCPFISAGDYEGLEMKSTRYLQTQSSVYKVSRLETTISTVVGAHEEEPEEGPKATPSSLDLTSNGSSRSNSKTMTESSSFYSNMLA
T2 sequence (P32300 whole entry): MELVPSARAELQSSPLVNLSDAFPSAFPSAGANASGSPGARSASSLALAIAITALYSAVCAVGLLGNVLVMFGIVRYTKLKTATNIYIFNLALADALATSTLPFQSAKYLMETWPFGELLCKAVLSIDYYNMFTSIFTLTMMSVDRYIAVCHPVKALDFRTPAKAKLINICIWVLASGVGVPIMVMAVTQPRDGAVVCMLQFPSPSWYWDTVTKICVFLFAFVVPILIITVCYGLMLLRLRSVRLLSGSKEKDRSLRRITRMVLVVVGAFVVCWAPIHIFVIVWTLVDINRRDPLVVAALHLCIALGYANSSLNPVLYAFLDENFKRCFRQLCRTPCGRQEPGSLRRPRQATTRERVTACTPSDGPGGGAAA

SMILES | Ki [1] | Emax [3, 6] | IC50 (δ opioid receptors (MVD)) | IC50 (μ opioid receptors (GPI); [7]) | Ki [4] | EC50 [3, 9] | Emax [3, 10] | IC50 (μ opioid receptors (GPI); [11]) | EC50 ([5]; Table 32) | Emax [5, 12] | further results
N[C@@H](Cc1ccc(O)cc1)C(=O)NCC(=O)N[C@@H](Cc1c[nH]c2ccccc12)C(=O)OCc1cc(C(F)(F)F)cc(C(F)(F)F)c1 [NP42] | 0.003 nM |  |  |  |  |  |  |  |  |  | Ki (rat NK1 (rNK1) receptor; Ki (nM) rNK1, Table 33): 0.36 nM; MVD δ-agonist, % at 1 μM (δ opioid receptors (MVD); Table 36, at 1 μM): 7.5% at 1 μM; GPI μ-agonist, % at 1 μM (μ opioid receptors (GPI); Table 36, at 1 μM): 2.6% at 1 μM; GPI SP-antagonist activity @ 1 μM ([2]; Table 36, @ 1 μM): None @ 1 μM
CSCC[C@H](NC(=O)[C@H](Cc1ccccc1)NC(=O)CNC(=O)[C@@H](C)NC(=O)[C@@H](N)Cc1ccc(O)cc1)C(=O)N1CCC[C@H]1C(=O)N[C@@H](CC(C)C)C(=O)N[C@@H](Cc1c[nH]c2ccccc12)C(=O)O [TY043] |  | 62% | 8.18 nM | 272 nM | 1.1 nM |  |  |  |  |  | Emax [5, 8]: 36%; GPI/LMMP SP antagonist (Ke; nM) ([2]; Table 39): no shift
C[C@@H](NC(=O)[C@@H](N)Cc1ccc(O)cc1)C(=O)NCC(=O)N[C@@H](Cc1ccccc1)C(=O)NCCCC(=O)N[C@@H](Cc1c[nH]c2ccccc12)C(=O)OCc1cc(C(F)(F)F)cc(C(F)(F)F)c1 [NP34] (HELM PEPTIDE1{Y.[dA].G.F.[O=C(CCCN[*:1])[*:2]].W.[FC(F)(F)c1cc(CO[*:1])cc(C(F)(F)F)c1]}$$$$V2.0; N-terminus assumed) | 0.001 nM |  | 67.9 nM |  |  | 16.5 nM | 40% | 200 nM | 17.4 nM | 27% | Kb [2, 13]: 0.96 nM
C[C@@H](NC(=O)[C@@H](N)Cc1ccc(O)cc1)C(=O)NCC(=O)N[C@@H](Cc1ccc(F)cc1)C(=O)OCc1cc(C(F)(F)F)cc(C(F)(F)F)c1 [NP62] | 0.2 nM |  | 184 nM |  |  |  |  |  |  |  | IC50 (μ opioid receptors (GPI); Table 36, read-out: GPI μ-agonist IC50): 208 nM; Kb ([2]; GPI SP-antagonist Ke (nM), Table 36): 51.8 nM
CCCC[C@H](NC(=O)[C@H](Cc1ccccc1)NC(=O)CNC(=O)[C@@H](C)NC(=O)[C@@H](N)Cc1ccc(O)cc1)C(=O)N1CCC[C@H]1C(=O)N[C@@H](CC(C)C)C(=O)N[C@@H](Cc1c[nH]c2ccccc12)C(=O)OCc1cc(C(F)(F)F)cc(C(F)(F)F)c1 [TY018, H-Tyr-D-Ala-Gly-Phe-Nle-Pro-Leu-Trp-O-3,5-Bzl(CF3)2] |  | 131% | 16.8 ± 2.4 nM | 372 nM |  |  |  |  |  |  | LogEC50, hDOR, [35S]GTP-γ-S binding [3]: −8.40 ± 0.11; EC50 ([3]; Table 27, read-out: GTP binding hDOR EC50): 4 nM; Emax ([3]; Table 27, read-out: GTP binding hDOR Emax (%)): 131%; EC50 [3, 14]: 4 nM; Emax ([3]; net total bound/basal binding × 100, read-out: Emax, hDOR, [35S]GTP-γ-S binding): 129%; EC50 ([3]; read-out: EC50, hDOR, [35S]GTP-γ-S binding): 4 nM; Ki (rat NK1 (rNK1) receptor; Ki, rNK1, text): 14.8 nM; IC50 (rat NK1 (rNK1) receptor; LogIC50, rNK1, Substance P radioligand, membranes from transfected CHO cells): 13.5 nM; IC50 (δ opioid receptors (MVD); Table 39, read-out: MVD opioid(delta) agonist (IC50; nM)): 16.8 nM; IC50 (μ opioid receptors (GPI); Table 28, read-out: GPI/LMMP Opioid(m) Agonist (IC50; nM)): 372 nM; IC50 (μ opioid receptors (GPI); electrically stimulated isolated tissue, read-out: GPI (μ), IC50): 372 ± 65 nM; LogIC50, hDOR, [3H]DPDPE ([4]; membranes from transfected HN9.10 cells): −8.42 ± 0.15; Kb [2, 15]: 7.9 ± 1.9 nM; activation at 1 µM ([2]; read-out: Substance P GPI agonist (A50), at 1 μM, contraction relative to initial muscle contraction with KCl): 0%
C[C@@H](NC(=O)[C@@H](N)Cc1ccc(O)cc1)C(=O)NCC(=O)N[C@@H](Cc1ccccc1)C(=O)N1CCC[C@H]1C(=O)N[C@@H](Cc1c[nH]c2ccccc12)C(=O)OCc1cc(C(F)(F)F)cc(C(F)(F)F)c1 [NP39] (HELM PEPTIDE1{Y.[dA].G.F.P.W.[FC(F)(F)c1cc(CO[*:1])cc(C(F)(F)F)c1]}$$$$V2.0; N-terminus assumed) | 0.1 nM |  |  |  |  |  |  | 259 nM |  |  | 
CC(C)C[C@H](NC(=O)[C@@H]1CCCN1C(=O)[C@H](Cc1ccccc1)NC(=O)[C@H](Cc1ccccc1)NC(=O)CNC(=O)[C@@H](C)NC(=O)[C@@H](N)Cc1ccc(O)cc1)C(=O)N[C@@H](Cc1c[nH]c2ccccc12)C(=O)OCc1ccccc1 [TY014] (HELM PEPTIDE1{Y.[dA].G.F.F.P.L.W.[c1ccc(CO[*:1])cc1]}$$$$V2.0; N-terminus assumed) |  | 137% |  |  | 11.5 nM |  |  |  |  |  | Emax [5, 8]: 72.3%
CSCC[C@H](NC(=O)[C@H](Cc1ccccc1)NC(=O)CNC(=O)[C@@H](C)NC(=O)[C@@H](N)Cc1ccc(O)cc1)C(=O)N1CCC[C@H]1C(=O)N[C@@H](CC(C)C)C(=O)N[C@@H](Cc1c[nH]c2ccccc12)C(=O)N(C)Cc1ccccc1 [TY026] | 0.001 nM | 93% | 7.89 nM | 86.7 nM |  |  |  |  |  |  | 
CC(C)C[C@H](NC(=O)[C@@H]1CCCN1C(=O)[C@H](Cc1ccccc1)NC(=O)CNC(=O)[C@@H](C)NC(=O)[C@@H](N)Cc1ccc(O)cc1)C(=O)N[C@@H](Cc1c[nH]c2ccccc12)C(=O)OCc1cc(C(F)(F)F)cc(C(F)(F)F)c1 [TY001, H-Tyr-DAla-Gly-Phe-Pro-Leu-Trp-O-3,5-Bzl(CF3)2] | 0.0023 nM |  |  |  |  |  |  |  |  |  | Ki (rat NK1 (rNK1) receptor; Affinity rNK1 (Ki; nM), Table 39): 1.56 nM; IC50 (rat NK1 (rNK1) receptor; LogIC50, rNK1, [3H]Substance P, Table 6, logarithm of IC50 (negative), CHO cell membranes): 5.01 nM; Ki (rat NK1 (rNK1) receptor; read-out: Ki, rNK1): 1.6 nM; IC50 [1]: 0.00501 nM; species difference between affinities at rNK1 and hNK1 ([1]; Ki rNK1 vs Ki hNK1): 700 fold; Kb [2, 15]: 3.6 ± 1.1 nM
C[C@H](NC(=O)[C@H](Cc1ccccc1)NC(=O)CNC(=O)[C@@H](C)NC(=O)[C@@H](N)Cc1ccc(O)cc1)C(=O)N[C@@H](Cc1c[nH]c2ccccc12)C(=O)OCc1cc(C(F)(F)F)cc(C(F)(F)F)c1 [NP31] (HELM PEPTIDE1{Y.[dA].G.F.A.W.[FC(F)(F)c1cc(CO[*:1])cc(C(F)(F)F)c1]}$$$$V2.0; N-terminus assumed) |  |  | 6.4 nM |  | 1.2 nM | 3.3 nM | 91% | 401 nM | 11 nM | 50% | Kb [2, 13]: 18.6 nM
C[C@@H](NC(=O)[C@@H](N)Cc1ccc(O)cc1)C(=O)NCC(=O)N[C@@H](Cc1ccccc1)C(=O)NC(C)(C)C(=O)N[C@@H](Cc1c[nH]c2ccccc12)C(=O)OCc1cc(C(F)(F)F)cc(C(F)(F)F)c1 [NP41] (HELM PEPTIDE1{Y.[dA].G.F.[Aib].W.[FC(F)(F)c1cc(CO[*:1])cc(C(F)(F)F)c1]}$$$$V2.0; N-terminus assumed) | 0.008 nM |  | 36.2 nM |  |  | 37.7 nM | 65% |  | 105 nM | 36% | Ki (rat NK1 (rNK1) receptor; Affinity (Ki, nM) rNK1, Table 32): 3.4 nM
CSCC[C@H](NC(=O)[C@H](Cc1ccccc1)NC(=O)CNC(=O)[C@@H](C)NC(=O)[C@@H](N)Cc1ccc(O)cc1)C(=O)N1CCC[C@H]1C(=O)N[C@@H](CC(C)C)C(=O)N[C@@H](Cc1c[nH]c2ccccc12)C(=O)OCc1ccccc1 [TY029] |  | 98% | 7.62 nM | 22.2 nM | 1.3 nM |  |  |  |  |  | EC50 [3, 14]: 3.4 nM; Emax [5, 8]: 133%
CC[C@H](NC(=O)[C@H](Cc1ccccc1)NC(=O)CNC(=O)[C@@H](C)NC(=O)[C@@H](N)Cc1ccc(O)cc1)C(=O)N[C@@H](Cc1c[nH]c2ccccc12)C(=O)OCc1cc(C(F)(F)F)cc(C(F)(F)F)c1 [NP33] (HELM PEPTIDE1{Y.[dA].G.F.[Abu].W.[FC(F)(F)c1cc(CO[*:1])cc(C(F)(F)F)c1]}$$$$V2.0; N-terminus assumed) |  |  | 12.4 nM |  | 1.6 nM | 2.9 nM | 43% | 600 nM | 8.6 nM | 32% | Kb [2, 13]: 5.6 nM
